Series [1] is described as follows: in vitro. Particulars: human, liver microsomes. In general terms: Liver microsomes are vesicles of endoplasmic reticulum, rich in cytochrome P450 enzymes.
Series [2] in a line: in vitro. Particulars: rat, liver microsomes.
Series [3] is described as follows: AUC in rat at 8 mg/kg, po. The format is ADME, organism-based. More on the design: dose 8 mg/kg, route oral. Particulars: plasma.
Series [4] in a line: Half life in rat at 8 mg/kg, po. In kind it is ADME, organism-based. The arrangement: dose 8 mg/kg, route oral. Particulars: in vivo.
Series [5] can be described thus: Half life in rat at 0.8 mg/kg, iv. In kind it is ADME, organism-based. More on the design: dose 0.8 mg/kg, route intravenous. Particulars: in vivo.
The nature of series [6]: Bioavailability in rat at 8 mg/kg, po. The format is ADME, organism-based. Particulars: in vivo.
Series [7] in a line: Volume of distribution at steady state in rat at 0.8 mg/kg, iv or 8 mg/kg, po. The format is ADME, organism-based. Particulars: in vivo, read-out: Vdss.
Series [8] in a line: Half life in rat at 0.7 mg/kg, iv. The format is ADME, organism-based. More on the design: dose 0.7 mg/kg, route intravenous. Particulars: in vivo.
Series [9] is described as follows: Half life in rat at 8.4 mg/kg, po. The format is ADME, organism-based. The arrangement: dose 8.4 mg/kg, route oral. Particulars: in vivo.
Series [10] is described as follows: Bioavailability in rat at 8.4 mg/kg, po. In kind it is ADME, organism-based. Particulars: in vivo.
The nature of series [11]: Volume of distribution at steady state in rat at 0.7 mg/kg, iv or 8.4 mg/kg, po. Particulars: in vivo, read-out: Vdss. The format is ADME, organism-based.
Series [12] can be described thus: AUC in rat at 8.4 mg/kg, po. More on the design: dose 8.4 mg/kg, route oral. Particulars: plasma. The format is ADME, organism-based.
Series [13] in a line: Bioavailability in rat at 11.6 mg/kg, po. Particulars: in vivo. In kind it is ADME, organism-based.
A short description of series [14]: AUC in rat at 11.6 mg/kg, po. In kind it is ADME, organism-based. More on the design: dose 11.6 mg/kg, route oral. Particulars: plasma.
The nature of series [15]: Half life in rat at 11.6 mg/kg, po. The format is ADME, organism-based. The arrangement: dose 11.6 mg/kg, route oral. Particulars: in vivo.
A short description of series [16]: Volume of distribution at steady state in rat at 1.0 mg/kg, iv or 11.6 mg/kg, po. In kind it is ADME, organism-based. Particulars: in vivo, read-out: Vdss.
Series [17] is described as follows: Half life in rat at 1.0 mg/kg, iv. Particulars: in vivo. The format is ADME, organism-based. More on the design: dose 1 mg/kg, route intravenous.

Data on 18 compounds can be found in ChEMBL document CHEMBL1143921, “Structure-based design and synthesis of benzimidazole derivatives as dipeptidyl peptidase IV inhibitors” (Bioorg Med Chem Lett, 2008).

The term half-life denotes the time needed for the level to fall by half in the phase considered. Higher therefore signals slow decline. What is called AUC is concentration integrated over time. A higher AUC goes with more exposure.

Bounds are passed on as bounds.

Regarding `Cn1cnc2ccc(-c3ccc(Cl)cc3Cl)c(CN)c21`, the half-life is over 3.33 h in [1], 0.767 h in [2], 4.4 h in series [4] and 7 h in [5]. Also, the AUC in [3] came out at 11500 ng·h/mL. Also, the bioavailability in series [6] was 100%. The Vd in series [7] came to 4.81 L/kg.
`Cn1cnc2ccc(-c3ccccc3)c(CN)c21`: the half-life stood at 1.55 h in series [1] and 0.767 h in series [2].
In the case of `Cn1cnc2ccc(-c3ccccc3CO)c(CN)c21`, the half-life came out at 1.67 h in series [1] and 0.65 h in [2].
In the same order, the values of `Cn1nnc2ccc(-c3ccccc3Cl)c(CN)c21` are 0.483 h and 0.217 h.
Take `Cc1ccccc1-c1ccc2ncn(C)c2c1CN`: the half-life in [1] stood at 3.05 h; in [2] it was 0.467 h.
With `CCn1cnc2ccc(-c3ccc(Cl)cc3Cl)c(CN)c21`, the half-life was over 3.33 h in series [1] and 0.7 h in series [2].
For the compound `Cc1nc2ccc(-c3ccccc3Cl)c(CN)c2n1C`, the half-life in series [1] is over 3.33 h; in series [2] it was 0.117 h.
Consider `Cn1cnc2cc(Br)c(-c3ccccc3Cl)c(CN)c21`, for which the half-life in series [1] turned out to be 2.93 h; in series [2], 0.4 h.
Regarding `Cn1c(=O)[nH]c2ccc(-c3ccccc3Cl)c(CN)c21`, the half-life is over 3.33 h in series [1], 1.27 h in [2], 4.2 h in series [8] and 4 h in series [9]. Further, the bioavailability in [10] is 49%. Besides, the Vd in [11] amounted to 1.14 L/kg. This compound also had an exposure (AUC) in series [12] of 9000 ng·h/mL.
On to `Cn1c(-c2cccnc2)nc2ccc(-c3ccccc3Cl)c(CN)c21`, for which the half-life was 1.6 h in series [1] and 0.433 h in series [2].
For the compound `COCc1nc2ccc(-c3ccccc3Cl)c(CN)c2n1C`, the half-life in [1] is over 3.33 h; in [2] it was 0.183 h.
In the same order, the values of `CCc1nc2ccc(-c3ccccc3Cl)c(CN)c2n1C` are over 3.33 h and 0.0333 h.
For `Cn1cnc2ccc(-c3ccccc3Cl)c(CN)c21`, the half-life was over 3.33 h in series [1] and 0.95 h in [2].
In the case of `Cn1cnc2cc(C#N)c(-c3ccccc3Cl)c(CN)c21`, the bioavailability in series [13] was 122%. Besides, the half-life in [1] was over 3.33 h; in series [2], 0.633 h; in [15], 2.9 h; in [17], 3.8 h. Moreover, the exposure (AUC) in series [14] amounted to 22100 ng·h/mL. Further, the Vd in series [16] amounted to 1.07 L/kg.
`Cn1cnc2cc(C(N)=O)c(-c3ccccc3Cl)c(CN)c21`: the half-life in series [1] and in [2] was over 3.33 h each time.
Consider `NCc1c(-c2ccccc2Cl)ccc2ncn(CCO)c12`, for which the half-life in [1] is over 3.33 h; in series [2], 0.533 h.
Regarding `NCc1c(-c2ccccc2Cl)ccc2ncn(Cc3ccccc3)c12`, the results for the half-life in [1] and in [2] were 0.133 h and 0.0667 h, respectively.
On to `NCc1c(-c2ccc(Cl)cc2Cl)ccc2nc[nH]c12`, for which the half-life in series [1] was found to be 2.15 h; in [2], 0.767 h.
